Source: patent US8217013B2, “Polyene diester antibiotics” (priority 2007, dated 2012)
Read-outs that look alike come from different tables or passages of the source.

Experiments:
Assay in all cases: Test of antibacterial activity in vitro (bacteria-inhibition zone)
Type in all cases: cell-based
[1] = test system: Candida mycoderma
Text: (§1) Test of Antibacterial Activity In Vitro
(§2) Experiment drugs: the polyene diester compounds prepared by examples 1-12
(§3) Control drugs: amphotericin B (standard product) • mycostatin (standard product) • natamycin (standard product)
2.3 Preparation of Candida mycoderrna suspension: the method is as same as preparation of Saccharomyces cerevisiae suspension
(§4) Taking appropriate amount of the above mentioned amphotericin B, mycostatin, natamycin and the polyene diester compounds prepared by examples 1-8 and 10-12, dissolving in a little dimethyl sulfoxide respectively, using pH7 phosphate buffer to dilute into solution which is equivalent to contain amphotericin B, mycostatin, natamycin 280 Units per milliliter, taking 1 ml and using pH7 phosphate buffer to quantitatively dilute into solution which is equivalent to contain amphotericin B 1.4 μg/ml and 2.8 μg/ml, and is equivalent to contain 5.6 μg/ml of mycostatin and natamycin.
(§5) In addition, preparing the solution according to the same method, adding 40% defibered sheep serum, using pH7 phosphate buffer to quantitatively dilute into unit solution which is equivalent to contain amphotericin B 1.4 μg/ml and 2.8 μg/ml, and is equivalent to contain 5.6 μg/ml of mycostatin and natamycin. Testing according to PHARMACOPOEIA OF THE PEOPLES REPUBLIC OF CHINA, second part, 2005 edition, appendix XIA The Antibiotics Microorganism Test.
(§6) Medium: Improved Martin Agar Medium, PHARMACOPOEIA OF THE PEOPLES REPUBLIC OF CHINA, second part, 2005 edition, appendix p 84.
(§7) Test method: Double-plate counting method; […] bacteria bed 15 ml to replace the double layers, culture temperature: 37° C., time: 24 h; strain concentration: 1%
(§8) Medium: Modified Martin Broth Medium

[2] = test system: Saccharomyces cerevisiae; settings: for zone of inhibition at 5.6 µg/mL: Saccharomyces cerevisiae
Text: as §1, §2, §3
2.2 Preparation of Saccharomyces cerevisiae suspension: PHARMACOPOEIA OF THE PEOPLES REPUBLIC OF CHINA, second part, 2005 edition, appendix p 80, p 83.
as §4, §5, §6, §7, §8

[3] = test system: Candida albicans; settings: 5.6 μg/ml after conversion; for zone of inhibition at 5.6 µg/mL: Candida albicans
Text: as §1, §2, §3
2.1 Preparation of Candida albicans suspension: PHARMACOPOEIA OF THE PEOPLES REPUBLIC OF CHINA, second part, 2005 edition, appendix p 81-84.
as §4, §5, §6
Test method: Double-plate counting method; […] bacteria bed 15 ml to replace the double layers, culture temperature: 37° C., time: 24 h; strain concentration: 1% […]

[4] = 0 h, 2.8 μg/ml after conversion, no serum
[5] = 0 h, 2.8 μg/ml after conversion, serum added (40% defibered sheep serum)
[6] = 6 h, 2.8 μg/ml after conversion, no serum
[7] = 24 h, 2.8 μg/ml after conversion, no serum
[8] = 48 h, 2.8 μg/ml after conversion, no serum
[9] = 0 h, serum added (40% defibered sheep serum)
[10] = 6 h, serum added (40% defibered sheep serum)
[11] = 24 h, serum added (40% defibered sheep serum)
[12] = 48 h, serum added (40% defibered sheep serum)
[13] = 0 h, 5.6 μg/ml after conversion, no serum
[14] = 0 h, 5.6 μg/ml after conversion, serum added (40% defibered sheep serum)
[15] = 6 h, 5.6 μg/ml after conversion, no serum
[16] = 24 h, 5.6 μg/ml after conversion, no serum
[17] = 48 h, 5.6 μg/ml after conversion, no serum

amphotericin B ethyl acetate
diameter of the bacteria-inhibition zone, Candida mycoderma 0 h [1, 4]: ++ (9-12 mm: ++) | diameter of the bacteria-inhibition zone, Candida mycoderma 0 h [1, 5]: ++ (9-12 mm: ++) | diameter of the bacteria-inhibition zone, Candida mycoderma 6 h [1, 6]: ++ (9-12 mm: ++) | diameter of the bacteria-inhibition zone, Candida mycoderma 24 h [1, 7]: ++ (9-12 mm: ++) | diameter of the bacteria-inhibition zone, Candida mycoderma 48 h [1, 8]: ++ (9-12 mm: ++) | diameter of the bacteria-inhibition zone, Saccharomyces cerevisiae 0 h [2, 4]: + (7-9 mm: +) | diameter of the bacteria-inhibition zone, Saccharomyces cerevisiae 0 h [2, 5]: ++ (9-12 mm: ++) | diameter of the bacteria-inhibition zone, Saccharomyces cerevisiae 6 h [2, 6]: + (7-9 mm: +) | diameter of the bacteria-inhibition zone, Saccharomyces cerevisiae 24 h [2, 7]: + (7-9 mm: +) | diameter of the bacteria-inhibition zone, Saccharomyces cerevisiae 48 h [2, 8]: + (7-9 mm: +)

C[C@@H]1C/C=C/C=C/C=C/C=C/[C@H](O[C@@H]2O[C@H](C)[C@@H](O)[C@H](N)[C@@H]2O)C[C@@H]2O[C@](O)(C[C@@H](O)C[C@H]3O[C@@H]3/C=C/C(=O)O1)C[C@H](O)[C@H]2C(=O)O [Natamycin, natamycin, reference compound]
zone of inhibition at 5.6 µg/mL ([1]; 0 h, 5.6 μg/ml after conversion, no serum, read-out: diameter of the bacteria-inhibition zone, Candida mycoderma 0 h): 12 to 14 mm | zone of inhibition at 5.6 µg/mL ([1]; 6 h, 5.6 μg/ml after conversion, no serum, read-out: diameter of the bacteria-inhibition zone, Candida mycoderma 6 h): 12 to 14 mm | zone of inhibition at 5.6 µg/mL ([1]; 24 h, 5.6 μg/ml after conversion, no serum, read-out: diameter of the bacteria-inhibition zone, Candida mycoderma 24 h): 12 to 14 mm | zone of inhibition at 5.6 µg/mL ([1]; 48 h, 5.6 μg/ml after conversion, no serum, read-out: diameter of the bacteria-inhibition zone, Candida mycoderma 48 h): 12 to 14 mm | zone of inhibition at 5.6 µg/mL ([2]; 0 h, 5.6 μg/ml after conversion, no serum, read-out: diameter of the bacteria-inhibition zone, Saccharomyces cerevisiae 0 h): 14 to 16 mm | zone of inhibition at 5.6 µg/mL ([2]; 0 h, 5.6 μg/ml after conversion, serum added (40% defibered sheep serum), read-out: diameter of the bacteria-inhibition zone, Saccharomyces cerevisiae 0 h): 12 to 14 mm | zone of inhibition at 5.6 µg/mL ([2]; 6 h, 5.6 μg/ml after conversion, no serum, read-out: diameter of the bacteria-inhibition zone, Saccharomyces cerevisiae 6 h): 14 to 16 mm | zone of inhibition at 5.6 µg/mL ([2]; 6 h, 5.6 μg/ml after conversion, serum added (40% defibered sheep serum), read-out: diameter of the bacteria-inhibition zone, Saccharomyces cerevisiae 6 h): 12 to 14 mm | zone of inhibition at 5.6 µg/mL ([2]; 24 h, 5.6 μg/ml after conversion, no serum, read-out: diameter of the bacteria-inhibition zone, Saccharomyces cerevisiae 24 h): 14 to 16 mm | zone of inhibition at 5.6 µg/mL ([2]; 24 h, 5.6 μg/ml after conversion, serum added (40% defibered sheep serum), read-out: diameter of the bacteria-inhibition zone, Saccharomyces cerevisiae 24 h): 12 to 14 mm | zone of inhibition at 5.6 µg/mL ([2]; 48 h, 5.6 μg/ml after conversion, no serum, read-out: diameter of the bacteria-inhibition zone, Saccharomyces cerevisiae 48 h): 14 to 16 mm | zone of inhibition at 5.6 µg/mL ([2]; 48 h, 5.6 μg/ml after conversion, serum added (40% defibered sheep serum), read-out: diameter of the bacteria-inhibition zone, Saccharomyces cerevisiae 48 h): 12 to 14 mm | diameter of the bacteria-inhibition zone, Candida albicans 0 h [3, 9]: ++ (9-12 mm: ++) | diameter of the bacteria-inhibition zone, Candida albicans 6 h [3, 10]: ++ (9-12 mm: ++) | diameter of the bacteria-inhibition zone, Candida albicans 24 h [3, 11]: ++ (9-12 mm: ++) | diameter of the bacteria-inhibition zone, Candida albicans 48 h [3, 12]: ++ (9-12 mm: ++) | zone of inhibition at 5.6 µg/mL ([3]; 0 h, no serum, read-out: diameter of the bacteria-inhibition zone, Candida albicans 0 h): 9 to 12 mm | zone of inhibition at 5.6 µg/mL ([3]; 6 h, no serum, read-out: diameter of the bacteria-inhibition zone, Candida albicans 6 h): 9 to 12 mm | zone of inhibition at 5.6 µg/mL ([3]; 24 h, no serum, read-out: diameter of the bacteria-inhibition zone, Candida albicans 24 h): 9 to 12 mm | zone of inhibition at 5.6 µg/mL ([3]; 48 h, no serum, read-out: diameter of the bacteria-inhibition zone, Candida albicans 48 h): 9 to 12 mm

mycostatin ethyl acetate
diameter of the bacteria-inhibition zone, Candida mycoderma 0 h [1, 13]: ++ (9-12 mm: ++) | diameter of the bacteria-inhibition zone, Candida mycoderma 0 h [1, 14]: ++ (9-12 mm: ++) | diameter of the bacteria-inhibition zone, Candida mycoderma 6 h [1, 15]: ++ (9-12 mm: ++) | diameter of the bacteria-inhibition zone, Candida mycoderma 24 h [1, 16]: ++ (9-12 mm: ++) | diameter of the bacteria-inhibition zone, Candida mycoderma 48 h [1, 17]: ++ (9-12 mm: ++) | diameter of the bacteria-inhibition zone, Saccharomyces cerevisiae 0 h [2, 13]: ++ (9-12 mm: ++) | diameter of the bacteria-inhibition zone, Saccharomyces cerevisiae 0 h [2, 14]: ++ (9-12 mm: ++) | diameter of the bacteria-inhibition zone, Saccharomyces cerevisiae 6 h [2, 15]: ++ (9-12 mm: ++) | diameter of the bacteria-inhibition zone, Saccharomyces cerevisiae 24 h [2, 16]: ++ (9-12 mm: ++) | diameter of the bacteria-inhibition zone, Saccharomyces cerevisiae 48 h [2, 17]: ++ (9-12 mm: ++) | diameter of the bacteria-inhibition zone, Candida albicans 0 h ([3]; 0 h, no serum): + (7-9 mm: +) | diameter of the bacteria-inhibition zone, Candida albicans 0 h [3, 9]: + (7-9 mm: +) | diameter of the bacteria-inhibition zone, Candida albicans 6 h ([3]; 6 h, no serum): + (7-9 mm: +) | diameter of the bacteria-inhibition zone, Candida albicans 6 h [3, 10]: + (7-9 mm: +) | diameter of the bacteria-inhibition zone, Candida albicans 24 h ([3]; 24 h, no serum): + (7-9 mm: +) | diameter of the bacteria-inhibition zone, Candida albicans 24 h [3, 11]: + (7-9 mm: +) | diameter of the bacteria-inhibition zone, Candida albicans 48 h ([3]; 48 h, no serum): + (7-9 mm: +) | diameter of the bacteria-inhibition zone, Candida albicans 48 h [3, 12]: + (7-9 mm: +)
